Strand notation (5' to 3'): a small letter for the sugar, then the base; units joined by * are phosphorothioate-linked, units joined directly phosphodiester-linked; [ ] holds rarer units or linkages, { } end groups; capitals alone tell only the bases. k = constrained ethyl (cEt); [5mC] = 5-methylcytosine; d = 2'-deoxy (DNA)
System: Yap1 mRNA
Test: Antisense inhibition of human Yap1 in A-431 cells by cEt gapmers, single dose (Example 2, RTS4814)
Format: cell-based
In short: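 Single-dose knockdown screen of 3-10-3 cEt phosphorothioate gapmers at 2,000 nM added by free uptake to A-431 cells. After roughly 48 h, RNA was isolated and Yap1 transcript measured by RT-qPCR, with results given as % UTC.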

[1] = Table 21, Yap1 mRNA, percent of untreated control, 3-10-3 cEt gapmers targeting SEQ ID NO.: 1 and 2
[2] = Table 6, A-431 cells, 5,000 cells per well, free uptake, 2,000 nM modified oligonucleotide, approx. 48 hours, RTS4814, normalized to RIBOGREEN, Yap1 mRNA relative to untreated control cells
[3] = Table 33, Yap1 mRNA, percent of untreated control, 3-10-3 cEt gapmers targeting SEQ ID NO.: 1, and 2
[4] = Table 19, A-431 cells, 5,000 cells per well, free uptake, 2,000 nM modified oligonucleotide, approx. 48 hours, RTS4814, normalized to RIBOGREEN, Yap1 mRNA as percent of untreated control
[5] = Table 25, Yap1 mRNA as percent of untreated control, 3-10-3 cEt gapmers targeting SEQ ID NO.: 1, and 2
[6] = Table 22, Yap1 mRNA as percent of untreated control, 3-10-3 cEt gapmers, single dose
[7] = Table 18, A-431 cells, 5,000 cells per well, free uptake, 2,000 nM modified oligonucleotide, approx. 48 hours, RTS4814, normalized to RIBOGREEN, Yap1 mRNA as percent of untreated control
[8] = Table 5, A-431 cells, 5,000 cells per well, free uptake, 2,000 nM modified oligonucleotide, approx. 48 hours, RTS4814, normalized to RIBOGREEN, Yap1 mRNA relative to untreated control cells
[9] = Table 24, Yap1 mRNA as percent of untreated control, 3-10-3 cEt gapmers targeting SEQ ID NO.: 1, and 2
[10] = Table 32, Yap1 mRNA, percent of untreated control, 3-10-3 cEt gapmers targeting SEQ ID NO.: 1, and 2
[11] = A-431 cells, 5,000 cells per well, free uptake, 2,000 nM modified oligonucleotide, approx. 48 hours, RTS4814, normalized to RIBOGREEN, Table 4, asterisk (*) = targets amplicon region of primer probe set
[12] = Table 23, Yap1 mRNA as percent of untreated control, 3-10-3 cEt gapmers, single dose

1075783 (k[5mC]*kT*kT*dA*dA*dT*dT*dT*dA*d[5mC]*d[5mC]*dT*dG*kA*kA*k[5mC]; antisense) [Compound 1075783]
YAP1 (% UTC) [1]: 36 % UTC

716546 (k[5mC]*kA*k[5mC]*dA*dA*dT*dT*dA*dA*dT*dT*dA*d[5mC]*kT*kG*kT; antisense) [Compound 716546]
YAP1 (% UTC) [2]: 103 % UTC

1075827 (kA*kT*kA*d[5mC]*dT*dA*dT*dA*d[5mC]*d[5mC]*dT*dA*dA*kG*kG*kA; antisense) [compound 1075827]
YAP1 (% UTC) [3]: 60 % UTC

1075623 (k[5mC]*kA*kT*dA*dA*dT*d[5mC]*dA*dA*dA*dA*dT*dG*kG*kG*k[5mC]; antisense) [Compound 1075623]
YAP1 (% UTC) [1]: 48 % UTC

1075719 (k[5mC]*kT*kA*dA*dA*dA*d[5mC]*d[5mC]*dG*dG*d[5mC]*dT*dG*kG*kA*k[5mC]; antisense) [Compound 1075719]
YAP1 (% UTC) [1]: 76 % UTC

1074373 (antisense kG*k[5mC]*kT*dT*dT*dG*dG*dT*dT*dG*dA*dT*dA*kG*kT*kA) [Compound 1074373]
YAP1 (% UTC) [4]: 26 % UTC

1075920 (antisense kA*kA*kA*dG*dA*dA*dA*dG*d[5mC]*dT*dG*d[5mC]*dG*k[5mC]*kA*k[5mC]) [compound 1075920]
YAP1 (% UTC) (Yap1 mRNA as percent of untreated control, A-431 cells, 3-10-3 cEt gapmers targeting SEQ ID NO.: 1, and 2, Table 30): 108 % UTC

1075531 (k[5mC]*kT*kT*dA*dA*dT*dA*dG*dT*dT*dT*dA*dA*k[5mC]*k[5mC]*kT; antisense) [Compound 1075531]
YAP1 (% UTC) [5]: 66 % UTC

1075272 (antisense kA*kA*kT*dT*dA*dG*d[5mC]*d[5mC]*dA*dG*d[5mC]*dA*dT*kG*k[5mC]*kA) [Compound 1075272]
YAP1 (% UTC) [6]: 110 % UTC

1076243 (kA*kT*kA*dT*dT*d[5mC]*dG*dA*dT*dG*dT*dA*dA*k[5mC]*kT*kT; antisense) [compound 1076243]
YAP1 (% UTC) [3]: 41 % UTC

1074603 (antisense kT*kT*k[5mC]*d[5mC]*dA*dG*d[5mC]*dT*dA*dA*d[5mC]*dT*d[5mC]*kA*kA*kA) [Compound 1074603]
YAP1 (% UTC) [5]: 17 % UTC

1074404 (antisense kG*kG*k[5mC]*dT*dT*dA*dT*dG*dG*dA*dA*dA*dT*kT*kT*k[5mC]) [Compound 1074404]
YAP1 (% UTC) [7]: 16 % UTC

716563 (kT*kG*kA*dA*dG*d[5mC]*dA*dA*dG*dT*dT*d[5mC]*dT*k[5mC]*kA*kA; antisense) [Compound 716563]
YAP1 (% UTC) [8]: 126 % UTC

1074865 (kA*k[5mC]*kA*dT*dA*dT*dG*dA*dG*d[5mC]*dA*dT*dG*k[5mC]*kT*k[5mC]; antisense) [compound 1074865]
YAP1 (% UTC) (Yap1 mRNA as percent of untreated control, A-431 cells, 3-10-3 cEt gapmers targeting SEQ ID NO.: 1, and 2, Table 31): 46 % UTC

1074378 (antisense kG*kA*kA*dA*d[5mC]*dG*dG*dT*dT*d[5mC]*dT*dG*d[5mC]*kT*kG*kT) [Compound 1074378]
YAP1 (% UTC) [9]: 31 % UTC

1075730 (kG*kT*kA*dT*dT*dT*dA*dA*dA*dA*dA*dT*dA*kG*k[5mC]*kG; antisense) [compound 1075730]
YAP1 (% UTC) [10]: 92 % UTC

716394 (kG*kT*kT*dG*d[5mC]*dT*dG*d[5mC]*dA*dG*dT*d[5mC]*dG*k[5mC]*kA*kT; antisense) [Compound 716394]
YAP1 (% UTC) [11]: 120 % UTC

1075880 (kA*kT*kT*dA*dA*d[5mC]*dT*dA*d[5mC]*dA*d[5mC]*d[5mC]*dA*k[5mC]*kG*kA; antisense) [Compound 1075880]
YAP1 (% UTC) [6]: 30 % UTC

1074569 (antisense kT*kG*kA*dA*d[5mC]*d[5mC]*dT*dA*d[5mC]*dT*d[5mC]*dA*d[5mC]*kT*kG*kA) [Compound 1074569]
YAP1 (% UTC) [12]: 8 % UTC

1074346 (antisense kA*kT*k[5mC]*dT*dG*dA*dG*d[5mC]*dT*dA*dT*dT*dG*kG*kT*k[5mC]) [Compound 1074346]
YAP1 (% UTC) [9]: 10 % UTC

1075403 (antisense k[5mC]*kT*kT*dA*dA*dT*d[5mC]*dA*dG*dG*dT*dA*d[5mC]*kT*kA*kT) [Compound 1075403]
YAP1 (% UTC) [5]: 18 % UTC

1076229 (kA*kA*kT*dT*dA*dA*d[5mC]*d[5mC]*dT*d[5mC]*dA*dG*dT*kG*kA*kG; antisense) [Compound 1076229]
YAP1 (% UTC) [4]: 91 % UTC

1075507 (kG*kT*kA*d[5mC]*dA*dA*d[5mC]*d[5mC]*dT*dA*dG*dT*dG*kA*kT*kA; antisense) [compound 1075507]
YAP1 (% UTC) [3]: 82 % UTC

1075186 (kA*kA*kA*dT*d[5mC]*dG*dA*dT*dT*dA*dT*dT*d[5mC]*kA*kG*kA; antisense) [compound 1075186]
YAP1 (% UTC) [10]: 73 % UTC

1074280 (antisense kG*kG*kT*d[5mC]*dA*dA*dG*d[5mC]*d[5mC]*dT*dT*dG*dG*kG*kT*k[5mC]) [Compound 1074280]
YAP1 (% UTC) [6]: 43 % UTC

716536 (antisense kA*kA*kG*dT*dA*dG*dA*dT*d[5mC]*dT*dA*dA*dG*kA*kA*kG) [Compound 716536]
YAP1 (% UTC) [8]: 94 % UTC

716351 (kG*kG*kT*d[5mC]*dT*dG*dG*d[5mC]*dG*dG*d[5mC]*dT*dG*k[5mC]*kG*k[5mC]; antisense) [Compound 716351]
YAP1 (% UTC) [2]: 112 % UTC

1074180 (antisense k[5mC]*k[5mC]*kG*dG*dG*dA*dT*d[5mC]*d[5mC]*dA*dT*dG*dG*k[5mC]*kT*kT) [Compound 1074180]
YAP1 (% UTC) [7]: 86 % UTC

716366 (k[5mC]*kA*kG*dG*dT*d[5mC]*dG*dG*dT*d[5mC]*dT*d[5mC]*d[5mC]*kG*kA*kG; antisense) [Compound 716366]
YAP1 (% UTC) [2]: 95 % UTC

1076275 (kG*kT*kA*dT*dT*dA*dG*dA*dT*dA*dA*dA*dG*k[5mC]*kA*kG; antisense) [compound 1076275]
YAP1 (% UTC) [3]: 10 % UTC

1074790 (k[5mC]*kA*kT*d[5mC]*dA*dA*d[5mC]*d[5mC]*dA*dT*dA*dA*dG*kT*kA*kG; antisense) [Compound 1074790]
YAP1 (% UTC) (Table 20, Yap1 mRNA, percent of untreated control, 3-10-3 cEt gapmers targeting SEQ ID NO.: 1 and 2): 28 % UTC

716559 (k[5mC]*k[5mC]*kT*dA*dA*d[5mC]*dA*dT*dA*dT*dG*dA*dG*k[5mC]*kA*kT; antisense) [Compound 716559]
YAP1 (% UTC) [11]: 62 % UTC

1076489 (antisense k[5mC]*kA*kA*dA*dA*dT*dA*dG*dG*dT*dG*dA*dG*kT*k[5mC]*kA) [Compound 1076489]
YAP1 (% UTC) [12]: 2 % UTC

1076329 (kA*kA*kT*dT*dA*dT*dA*d[5mC]*dT*dG*dG*d[5mC]*dT*kA*k[5mC]*kT; antisense) [Compound 1076329]
YAP1 (% UTC) [12]: 14 % UTC

716404 (k[5mC]*kG*kT*d[5mC]*dA*dT*dT*dG*dT*dT*d[5mC]*dT*d[5mC]*kA*kA*kT; antisense) [Compound 716404]
YAP1 (% UTC) [8]: 63 % UTC

1075283 (antisense k[5mC]*kG*kA*dA*dT*dA*dT*dA*dG*dA*dA*dA*dA*kA*kT*kG) [compound 1075283]
YAP1 (% UTC) [3]: 90 % UTC

1075972 (kT*k[5mC]*kA*d[5mC]*dA*dA*dG*dG*dG*d[5mC]*dT*dA*dA*kT*kT*k[5mC]; antisense) [Compound 1075972]
YAP1 (% UTC) [7]: 22 % UTC

1074226 (antisense k[5mC]*kT*kG*dT*d[5mC]*dG*dA*dA*dG*dA*dT*dG*d[5mC]*kT*kG*kA) [compound 1074226]
YAP1 (% UTC) [10]: 10 % UTC

1076549 (antisense kG*kT*kG*d[5mC]*dA*dA*dA*dA*dT*dA*d[5mC]*d[5mC]*dT*kT*kT*kG) [Compound 1076549]
YAP1 (% UTC) [4]: 8 % UTC

716446 (kG*k[5mC]*kA*d[5mC]*dA*d[5mC]*d[5mC]*d[5mC]*dA*d[5mC]*dA*dA*dA*kA*kT*kT; antisense) [Compound 716446]
YAP1 (% UTC) [8]: 83 % UTC

— US11214803B2, “Modulators of YAP1 expression” (Ionis Pharmaceuticals, Inc., priority 2019, dated 2022)
